Measurements reported in the supplement of paper PMC10307832.

Key:
Experiment in all cases: relative viability (nuclei count vs DMSO), 5 days (fraction); higher = more cells survive
Luminespib = compound: CCNC(=O)c1noc(-c2cc(C(C)C)c(O)cc2O)c1-c1ccc(CN2CCOCC2)cc1 [Luminespib]
Outline: (§1)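 Lung cancer cell lines in 1536-well plates were kept overnight at 37 °C, then pinned with five library-drug doses (not always all listed) spaced by √10 on vehicle-anchored plates. After 5 days without medium change, cells were fixed, permeabilised and Hoechst-stained in one step, imaged at 4×, and nuclei were counted with MetaXpress. Viability is treated-well nuclei divided by vehicle-well nuclei, taken as the median over plates. Plates passed only with control CV below 25% and at least one doubling.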

Saracatinib = compound: CN1CCN(CCOc2cc(OC3CCOCC3)c3c(Nc4c(Cl)ccc5c4OCO5)ncnc3c2)CC1 [Saracatinib]
Outline: as §1

Nilotinib = compound: Cc1cn(-c2cc(NC(=O)c3ccc(C)c(Nc4nccc(-c5cccnc5)n4)c3)cc(C(F)(F)F)c2)cn1 [Nilotinib]
Outline: as §1

MIM1 = compound: CC1=CSC(=NC2CCCCC2)N1/N=C/C3=C(C(=C(C=C3)O)O)O [MIM1]
Outline: as §1

Lenalidomide = compound: Nc1cccc2c1CN(C1CCC(=O)NC1=O)C2=O [Lenalidomide]
Outline: as §1

Cell Line | relative viability (Luminespib; 0.002 µM) | relative viability (Luminespib; 0.006325 µM) | relative viability (Luminespib; 0.01 µM, anchor plate) | relative viability (Luminespib; 0.02 µM) | relative viability (Luminespib; 0.06325 µM) | relative viability (Luminespib; 0.2 µM) | relative viability (Saracatinib; 0.02 µM) | relative viability (Saracatinib; 0.2 µM) | relative viability (Saracatinib; 0.6325 µM) | relative viability (Saracatinib; 2 µM) | relative viability (Nilotinib; 0.001 µM) | relative viability (Nilotinib; 0.003162 µM) | relative viability (Nilotinib; 0.01 µM) | relative viability (Nilotinib; 0.03162 µM) | relative viability (Nilotinib; 0.1 µM) | relative viability (MIM1; 0.2 µM) | relative viability (MIM1; 0.6325 µM) | relative viability (MIM1; 2 µM) | relative viability (MIM1; 6.325 µM) | relative viability (MIM1; 20 µM) | relative viability (Lenalidomide; 0.253 µM) | relative viability (Lenalidomide; 0.8 µM) | relative viability (Lenalidomide; 2.53 µM) | relative viability (Lenalidomide; 8 µM)
NCI-H2087 | 1.07 | 0.894 | 0.192 | 0.625 | 0.143 | 0.122 | 1.11 | 0.873 | 1.11 | 1.01 | 0.813 | 0.981 | 0.992 | 0.443 | 0.299 | 1.03 | 0.943 | 1.03 | 0.696 | 0.583 | 1.03 | 0.892 | 1.14 | 0.888
NCI-H2126 | 0.967 | 0.962 | 0.919 | 0.646 | 0.756 | 0.26 | 1.07 | 0.965 | 0.931 | 0.816 | 0.995 | 1.09 | 1.03 | 0.937 | 0.601 | 1.04 | 0.91 | 1.04 | 0.897 | 0.688 | 1.01 | 0.859 | 1.08 | 0.788
NCI-H2170 | 0.974 | 0.945 | 0.732 | 0.586 | 0.793 | 0.179 | 1 | 0.926 | 0.986 | 0.689 | 0.864 | 1.16 | 1.2 | 0.875 | 0.952 | 0.943 | 0.907 | 1.02 | 0.603 | 0.28 | 1 | 0.979 | 1.01 | 0.782
NCI-H2228 | 1.23 | 0.87 | 0.148 | 0.451 | 0.172 | 0.157 | 1.04 | 0.825 | 0.9 | 0.841 | 0.773 | 1.5 | 1.36 | 0.698 | 0.511 | 0.999 | 0.978 | 1.31 | 0.517 | 0.172 | 0.795 | 1.07 | 1.22 | 0.89
NCI-H2342 | 0.974 | 0.955 | 0.76 | 0.619 | 0.774 | 0.592 | 1.07 | 0.947 | 1.14 | 0.945 | 0.868 | 0.928 | 1.02 | 0.831 | 1.02 | 0.944 | 1 | 1.01 | 0.803 | 1.03 | 1.01 | 0.952 | 1.04 | 0.733
NCI-H2347 | 1.02 | 0.721 | 0.421 | 0.911 | 0.722 | 0.318 | 0.983 | 0.903 | 1.09 | 1.06 | 0.97 | 1.14 | 1.13 | 0.841 | 0.793 | 1.1 | 0.972 | 1.09 | 0.757 | 0.478 | 1.03 | 1.13 | 1.17 | 0.9
NCI-H2405 | 1.07 | 0.837 | 0.686 | 0.831 | 0.274 | 0.212 | 0.985 | 0.861 | 0.775 | 0.52 | 0.994 | 0.975 | 0.966 | 0.821 | 0.551 | 1.02 | 1.08 | 1.05 | 0.742 | 0.573 | 0.969 | 0.909 | 1.01 | 0.831
NCI-H3122 | 1.05 | 0.958 | 0.0888 | 0.627 | 0.507 | 0.117 | 0.969 | 0.717 | 0.845 | 0.803 | 1.03 | 1.21 | 1.23 | 0.971 | 0.956 | 0.979 | 1.04 | 1.01 | 0.551 | 0.257 | 0.999 | 1.04 | 1.01 | 1.06
PC-3 [JPC-3] | 1.01 | 0.915 | 0.669 | 0.982 | 0.961 | 0.281 | 1.02 | 0.945 | 0.766 | 0.541 | 1.03 | 1.07 | 1.11 | 1 | 0.656 | 1.05 | 1.04 | 0.988 | 0.874 | 0.439 | 1.03 | 0.899 | 1.13 | 1.08
PC-14 | 1.02 | 0.933 | 0.164 | 0.572 | 0.0917 | 0.0993 | 1.01 | 0.675 | 0.453 | 0.234 | 0.944 | 1.14 | 1.26 | 0.879 | 0.643 | 0.959 | 1.01 | 0.836 | 0.807 | 0.325 | 1.01 | 1.02 | 1.12 | 1.1
RERF-LC-KJ | 0.979 | 0.994 | 1.24 | 0.844 | 0.314 | 0.234 | 1.1 | 0.979 | 1.02 | 0.981 | 0.932 | 1.1 | 1.12 | 0.868 | 0.81 | 0.932 | 0.977 | 0.823 | 0.574 | 0.271 | 1.06 | 0.947 | 1.08 | 0.943
SK-LU-1 | 1.09 | 0.777 | 0.202 | 0.644 | 0.186 | 0.192 | 1.03 | 0.802 | 0.707 | 0.53 | 0.932 | 0.927 | 1.24 | 0.718 | 0.894 | 1.05 | 1.08 | 1.12 | 0.934 | 0.617 | 0.963 | 1.03 | 1.23 | 0.903
SK-MES-1 | 0.986 | 0.931 | 0.831 | 0.903 | 0.171 | 0.145 | 1 | 0.894 | 0.817 | 0.579 | 0.994 | 1.13 | 1.26 | 0.924 | 0.877 | 1.02 | 0.986 | 0.996 | 0.766 | 0.507 | 0.988 | 0.995 | 1.06 | 0.936
SW 900 | 0.945 | 0.732 | 0.18 | 0.474 | 0.138 | 0.132 | 0.97 | 0.658 | 0.878 | 0.694 | 0.748 | 0.939 | 1.07 | 0.639 | 0.611 | 0.915 | 0.947 | 0.782 | 0.502 | 0.158 | 0.809 |  | 1.03 | 0.598
